IC50 data for five compounds are collected here from patent publication US20170197979A1, “BENZOTHIADIAZOLAMINES” (BAYER PHARMA AKTIENGESELLSCHAFT, priority 2014, published 2017).

In this assay the target is T1, human full-length MKNK1 (Homo sapiens, UniProt Q9BUB5, T385D).
T1 construct: GST (N); purchased Carna Biosciences 02-145; host or cells: insect cells (baculovirus expression system)
As to the kind of experiment: MKNK1 kinase high ATP assay (TR-FRET). In kind it is biochemical. As to conditions: TR-FRET, high ATP (2 mM final), 15 min preincubation with enzyme, GST-MKNK1 (T344D); read-out: MKNK1 IC50. In general terms: TR-FRET usually uses a lanthanide donor and a delayed reading to cut background.

T1 sequence (Q9BUB5 1-424 isoform Q9BUB5-2 T344D): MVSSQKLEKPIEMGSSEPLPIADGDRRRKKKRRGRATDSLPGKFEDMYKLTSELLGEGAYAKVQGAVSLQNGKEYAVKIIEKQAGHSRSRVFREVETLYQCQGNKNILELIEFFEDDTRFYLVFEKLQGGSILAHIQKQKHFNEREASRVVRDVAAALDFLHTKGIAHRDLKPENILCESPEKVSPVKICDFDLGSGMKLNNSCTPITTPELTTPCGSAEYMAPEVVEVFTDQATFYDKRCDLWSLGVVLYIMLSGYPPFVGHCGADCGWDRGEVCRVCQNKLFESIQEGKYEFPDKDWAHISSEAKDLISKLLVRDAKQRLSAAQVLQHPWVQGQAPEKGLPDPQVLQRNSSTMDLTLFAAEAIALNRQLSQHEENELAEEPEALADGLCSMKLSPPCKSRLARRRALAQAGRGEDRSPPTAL

Consider `CCN(CCN(C)C)C(=O)[C@H]1CCc2c(sc3ncnc(Nc4cc5snnc5cc4OC)c23)C1` [Example 55, (7S)—N-[2-(Dimethylamino)ethyl]-N-ethyl-4-[(5-methoxy-1,2,3-benzothiadiazol-6-yl)amino]-5,6,7,8-tetrahydro[1]benzothieno[2,3-d]pyrimidine-7-carboxamide], for which the IC50 was found to be 8.9 nM.

Turning to `COc1cc2nnsc2cc1Nc1ncnc2sc3c(c12)CC[C@H](C(=O)NCCC(F)(F)F)C3` [Example 56, (7S)-4-[(5-Methoxy-1,2,3-benzothiadiazol-6-yl)amino]-N-(3,3,3-trifluoropropyl)-5,6,7,8-tetrahydro[1]benzothieno[2,3-d]pyrimidine-7-carboxamide], the concentration for half-maximal inhibition (IC50) is 7.3 nM.

Take `COc1cc2nnsc2cc1Nc1ncnc2sc3c(c12)CC[C@H](C(=O)N1C[C@H](O)[C@@H](O)C1)C3` [Example 57, [(3S,4S)-3,4-Dihydroxypyrrolidin-1-yl]{(7S)-4-[(5-methoxy-1,2,3-benzothiadiazol-6-yl)amino]-5,6,7,8-tetrahydro[1]benzothieno[2,3-d]pyrimidin-7-yl}methanone]: the IC50 was 1.6 nM.

`COc1cc2nnsc2cc1Nc1ncnc2sc3c(c12)CC[C@H](C(=O)N1C[C@H]2C[C@@H]1CN2C)C3` [Example 58, {(7S)-4-[(5-Methoxy-1,2,3-benzothiadiazol-6-yl)amino]-5,6,7,8-tetrahydro[1]benzothieno[2,3-d]pyrimidin-7-yl}[(1R,4R)-5-methyl-2,5-diazabicyclo[2.2.1]hept-2-yl]methanone]: the IC50 came to 1.9 nM.

Turning to `CN1C[C@H]2C[C@@H]1CN2C(=O)[C@H]1CCc2c(sc3ncnc(Nc4ccc5nnsc5c4)c23)C1` [Example 59, [(7S)-4-(1,2,3-Benzothiadiazol-6-ylamino)-5,6,7,8-tetrahydro[1]benzothieno[2,3-d]pyrimidin-7-yl][(1R,4R)-5-methyl-2,5-diazabicyclo[2.2.1]hept-2-yl]methanone], the IC50 was 3.2 nM.

In general, IC50 refers to the concentration at which inhibition is half-maximal.
